Data on 3 molecules can be found in US7252957B2, “Identification of etiology of autism” (Immunosciences Lab., Inc., priority 2004, dated 2007).

One assay addresses T1, CD69 (Homo sapiens, UniProt Q07108).
T1 construct: purchased Bio-Synthesis Inc. (Lewisville, Tex.); host or cells: chemical synthesis
In words: ELISA: binding of gliadin, casein peptides, SK and ethyl mercury to CD69 (inhibition of anti-CD69 binding). The following applies: for % Binding of Gliadin, Casein, Streptokinase, or Mercury to CD26 and CD69: CD69 coated wells, % inhibition of anti-CD69 binding to CD69; for ELISA O.D. at 492 nm: microwell coated with CD69 + competing antigen, peroxidase labeled rabbit anti-CD69. The method, then:
(§1) Plates were incubated for one hour at 37° C. and washed five times for removal of unbound competing antigens. […] After proper incubation and washing, binding of these peptides and proteins to CD26 and CD69 was measured by addition of peroxidase substrate and measurement of color development at 492 nm.
(In general: In an ELISA, binding on a coated surface is turned into a signal by an enzyme label.)

A further assay deals with CD26. Kind of assay: ELISA: binding of gliadin, casein peptides, SK and ethyl mercury to CD26 (inhibition of anti-CD26 binding). Particulars: for % Binding of Gliadin, Casein, Streptokinase, or Mercury to CD26 and CD69: CD26 coated wells, % inhibition in binding of anti-CD26 to CD26; for ELISA O.D. at 492 nm: microwell coated with CD26 + competing antigen, peroxidase labeled rabbit anti-CD26. The procedure: as §1

The target in assay [1] is CD69 antibody binding epitope … (human). Kind of assay: competition ELISA, CD69-coated wells, read with peroxidase labeled rabbit anti-CD69.

Consider Casein, for which, at CD69, the “% Binding of Gliadin, Casein, Streptokinase, or Mercury to CD26 and CD69” value came to 28%; the “ELISA O.D. at 492 nm” value is listed as 1.45 O.D. In addition, in the assay with CD26, the “% Binding of Gliadin, Casein, Streptokinase, or Mercury to CD26 and CD69” value came to 44%; the “ELISA O.D. at 492 nm” value was found to be 1.34 O.D.
Consider streptokinase [SK], for which, at CD69, the “% Binding of Gliadin, Casein, Streptokinase, or Mercury to CD26 and CD69” value turned out to be 86%; the “ELISA O.D. at 492 nm” value turned out to be 0.48 O.D. Also, in the assay with CD26, the “% Binding of Gliadin, Casein, Streptokinase, or Mercury to CD26 and CD69” value came out at 77%; the “ELISA O.D. at 492 nm” value is recorded as 0.72 O.D.

B1: Streptokinase (SK), P00779 27-440 (protein)
chain: IAGPEWLLDRPSVNNSQLVVSVAGTVEGTNQDISLKFFEIDLTSRPAHGGKTEQGLSPKSKPFATDSGAMSHKLEKADLLKAIQEQLIANVHSNDDYFEVIDFASDATITDRNGKVYFADKDGSVTLPTQPVQEFLLSGHVRVRPYKEKPIQNQAKSVDVEYTVQFTPLNPDDDFRPGLKDTKLLKTLAIGDTITSQELLAQAQSILNKNHPGYTIYERDSSIVTHDNDIFRTILPMDQEFTYRVKNREQAYRINKKSGLNEEINNTDLISEKYYVLKKGEKPYDPFDRSHLKLFTIKYVDVDTNELLKSEQLLTASERNLDFRDLYDPRDKAKLLYNNLDAFGIMDYTLTGKVEDNHDDTNRIITVYMGKRPEGENASYHLAYDKDRYTEEEREVYSYLRYTGTPIPDNPNDK
In assay [1], B1 came in with a % Binding of Gliadin, Casein, Streptokinase, or Mercury to CD26 and CD69 (% inhibition of anti-CD69 binding) of 86%.
